Experimental data published in patent publication US20110166191A1, “3-(2-amino-ethyl)-5-(3-cyclohexyl-propylidene)-thiazolidine-2,4-dione and its derivatives as multiple signaling pathway inhibitors and for the treatment of cancer” (priority 2010, published 2011).

Tests used:
[1] = biological target: T1, DYRK1a (Homo sapiens, UniProt Q13627); assay: In vitro kinase screening; format: biochemical; conditions: 10 μM concentration
T1 construct: Caliper Life Sciences (screening service)
Procedure: (§1) Formula II [3-(2-aminoethyl)-5-(3-cyclohexylpropylidene)thiazolidine-2,4-dione] was screened against a panel of kinases at 10 μM concentration by Caliper Life Sciences according to their established protocol.

[2] = biological target: T2, INSR (Homo sapiens, UniProt P06213); assay: In vitro kinase screening; format: biochemical; conditions: 10 μM concentration
T2 construct: Caliper Life Sciences (screening service)
T2 sequence (P06213 28-1382): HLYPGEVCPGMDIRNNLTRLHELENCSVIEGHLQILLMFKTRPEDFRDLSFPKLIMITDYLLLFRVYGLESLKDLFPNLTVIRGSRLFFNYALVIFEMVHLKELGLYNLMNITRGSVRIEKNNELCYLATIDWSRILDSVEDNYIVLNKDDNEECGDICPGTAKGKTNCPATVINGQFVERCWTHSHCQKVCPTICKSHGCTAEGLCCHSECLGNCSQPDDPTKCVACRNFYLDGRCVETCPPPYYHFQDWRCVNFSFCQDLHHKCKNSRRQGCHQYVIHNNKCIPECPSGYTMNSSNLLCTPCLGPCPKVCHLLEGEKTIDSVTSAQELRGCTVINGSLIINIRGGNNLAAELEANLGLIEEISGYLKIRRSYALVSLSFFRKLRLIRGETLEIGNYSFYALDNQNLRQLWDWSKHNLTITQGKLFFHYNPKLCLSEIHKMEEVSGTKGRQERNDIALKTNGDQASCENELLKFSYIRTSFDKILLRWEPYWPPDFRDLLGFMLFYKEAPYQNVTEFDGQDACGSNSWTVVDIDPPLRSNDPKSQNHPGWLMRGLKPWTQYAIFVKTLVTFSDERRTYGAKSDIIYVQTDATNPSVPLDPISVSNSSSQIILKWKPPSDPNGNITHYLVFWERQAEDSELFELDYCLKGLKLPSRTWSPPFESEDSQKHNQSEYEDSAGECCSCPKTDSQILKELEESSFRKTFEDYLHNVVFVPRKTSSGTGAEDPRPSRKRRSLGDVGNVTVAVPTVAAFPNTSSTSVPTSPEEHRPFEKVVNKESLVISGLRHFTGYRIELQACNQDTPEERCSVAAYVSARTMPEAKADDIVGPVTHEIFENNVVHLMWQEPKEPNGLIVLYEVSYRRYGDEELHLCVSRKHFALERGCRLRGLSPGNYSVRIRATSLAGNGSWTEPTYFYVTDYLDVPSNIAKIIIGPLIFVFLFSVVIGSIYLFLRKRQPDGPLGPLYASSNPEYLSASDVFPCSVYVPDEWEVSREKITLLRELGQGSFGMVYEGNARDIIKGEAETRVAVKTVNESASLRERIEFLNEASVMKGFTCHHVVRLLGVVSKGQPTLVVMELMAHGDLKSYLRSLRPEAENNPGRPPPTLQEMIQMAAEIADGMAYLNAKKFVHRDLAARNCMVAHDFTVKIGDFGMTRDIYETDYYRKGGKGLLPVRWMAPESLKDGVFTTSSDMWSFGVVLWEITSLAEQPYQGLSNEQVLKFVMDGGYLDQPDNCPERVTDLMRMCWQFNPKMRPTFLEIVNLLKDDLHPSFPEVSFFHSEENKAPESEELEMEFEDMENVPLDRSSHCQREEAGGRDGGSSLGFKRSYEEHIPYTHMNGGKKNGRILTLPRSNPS
Procedure: as §1

[3] = test system: phosphorylation of Akt; assay: Western blot analysis of p-Akt in U937 cells; format: cell-based; conditions: PMA/TPA 200 nM stimulation
Procedure: FIG. 1. U937 cells were treated with Formula II prepared as described in Example 4 [i.e. 3-(2-aminoethyl)-5-(3-cyclohexylpropylidene)thiazolidine-2,4-dione] for 1 h, then stimulated with PMA (200 nM) for 30 min. Lysates were analyzed for p-Akt, p-MEK, p-ERK and α-tubulin by western blot analysis.
Cells (5×10^5 per ml) were treated with various concentrations of test compound at 37° C. (5% CO2) for 3 hrs, then stimulated with TPA at a final concentration of 200 nM for 20 min. Samples from whole-cell pellets were prepared and 30 μg protein for each condition was subjected to SDS-PAGE, transferred onto a PVDF membrane, and blocked with 5% fat-free milk for 30 min. The membrane is probed with primary antibodies overnight at 4° C. followed by incubation with horseradish peroxidase-labeled anti-mouse IgG (1:5000, BD Biosciecne). The immunoreactive bands are detected by chemiluminescence methods (Pierce) and visualized on Kodak Omat film. The following primary antibodies were used: phospho-p44/42 MAPK (ERK1/2, Thr202/Tyr204), p44/42 MAPK, phospho-p90RSK (Thr359/Ser363), RSK1/RSK2/RSK3 (Cell Signaling). Blots were reprobed with antibodies against α-tubulin to ensure equal loading and transfer of proteins.

[4] = test system: HL-60(TB); assay: NCI 60 cell line panel screening; format: cell-based; conditions: Homo sapiens, Leukemia, read-out: Growth Inhibition (GI50)
From the text: (§2) Compound 3-(2-aminoethyl)-5-(3-cyclohexylpropylidene)thiazolidine-2,4-dione was screened at five concentrations in National Cancer Institute (NCI) 60-cell line panel according to NCI's protocol for growth inhibition.

[5] = test system: SN12C; assay: NCI 60 cell line panel screening; format: cell-based; conditions: Homo sapiens, Renal Cancer, read-out: Growth Inhibition (GI50)
From the text: as §2

[6] = test system: HOP-92; assay: NCI 60 cell line panel screening; format: cell-based; conditions: Homo sapiens, Non-Small Cell Lung Cancer, read-out: Growth Inhibition (GI50)
From the text: as §2

[7] = test system: HOP-62; assay: NCI 60 cell line panel screening; format: cell-based; conditions: Homo sapiens, Non-Small Cell Lung Cancer, read-out: Growth Inhibition (GI50)
From the text: as §2

[8] = test system: NCI-H23; assay: NCI 60 cell line panel screening; format: cell-based; conditions: Homo sapiens, Non-Small Cell Lung Cancer, read-out: Growth Inhibition (GI50)
From the text: as §2

[9] = test system: NCI/ADR-RES; assay: NCI 60 cell line panel screening; format: cell-based; conditions: Homo sapiens, Ovarian Cancer, read-out: Growth Inhibition (GI50)
From the text: as §2

[10] = test system: HCT-116; assay: NCI 60 cell line panel screening; format: cell-based; conditions: Homo sapiens, Colon Cancer, read-out: Growth Inhibition (GI50)
From the text: as §2

[11] = test system: RXF-393; assay: NCI 60 cell line panel screening; format: cell-based; conditions: Homo sapiens, Renal Cancer, read-out: Growth Inhibition (GI50)
From the text: as §2

[12] = test system: ACHN; assay: NCI 60 cell line panel screening; format: cell-based; conditions: Homo sapiens, Renal Cancer, read-out: Growth Inhibition (GI50)
From the text: as §2

[13] = test system: HCT-15; assay: NCI 60 cell line panel screening; format: cell-based; conditions: Homo sapiens, Colon Cancer, read-out: Growth Inhibition (GI50)
From the text: as §2

[14] = test system: IGROV1; assay: NCI 60 cell line panel screening; format: cell-based; conditions: Homo sapiens, IGROV-1, Ovarian Cancer, read-out: Growth Inhibition (GI50)
From the text: as §2

[15] = test system: EKVX; assay: NCI 60 cell line panel screening; format: cell-based; conditions: Homo sapiens, Non-Small Cell Lung Cancer, read-out: Growth Inhibition (GI50)
From the text: as §2

[16] = test system: SW-620; assay: NCI 60 cell line panel screening; format: cell-based; conditions: Homo sapiens, Colon Cancer, read-out: Growth Inhibition (GI50)
From the text: as §2

[17] = test system: A498; assay: NCI 60 cell line panel screening; format: cell-based; conditions: Homo sapiens, Renal Cancer, read-out: Growth Inhibition (GI50)
From the text: as §2

[18] = test system: SF-268; assay: NCI 60 cell line panel screening; format: cell-based; conditions: Homo sapiens, CNS Cancer, read-out: Growth Inhibition (GI50)
From the text: as §2

[19] = test system: MDA-MB-468; assay: NCI 60 cell line panel screening; format: cell-based; conditions: Homo sapiens, Breast Cancer, read-out: Growth Inhibition (GI50)
From the text: as §2

[20] = test system: CAKI-1; assay: NCI 60 cell line panel screening; format: cell-based; conditions: Homo sapiens, Renal Cancer, read-out: Growth Inhibition (GI50)
From the text: as §2

[21] = test system: HCC-2998; assay: NCI 60 cell line panel screening; format: cell-based; conditions: Homo sapiens, Colon Cancer, read-out: Growth Inhibition (GI50)
From the text: as §2

[22] = test system: UACC-62; assay: NCI 60 cell line panel screening; format: cell-based; conditions: Homo sapiens, Melanoma, read-out: Growth Inhibition (GI50)
From the text: as §2

[23] = test system: MDA-MB-435; assay: NCI 60 cell line panel screening; format: cell-based; conditions: Homo sapiens, Melanoma, read-out: Growth Inhibition (GI50)
From the text: as §2

[24] = test system: OVCAR-4; assay: NCI 60 cell line panel screening; format: cell-based; conditions: Homo sapiens, Ovarian Cancer, read-out: Growth Inhibition (GI50)
From the text: as §2

[25] = test system: SNB-75; assay: NCI 60 cell line panel screening; format: cell-based; conditions: Homo sapiens, CNS Cancer, read-out: Growth Inhibition (GI50)
From the text: as §2

[26] = test system: SK-OV-3; assay: NCI 60 cell line panel screening; format: cell-based; conditions: Homo sapiens, Ovarian Cancer, read-out: Growth Inhibition (GI50)
From the text: as §2

[27] = test system: COLO 205; assay: NCI 60 cell line panel screening; format: cell-based; conditions: Homo sapiens, Colon Cancer, read-out: Growth Inhibition (GI50)
From the text: as §2

[28] = test system: NCI-H226; assay: NCI 60 cell line panel screening; format: cell-based; conditions: Homo sapiens, Non-Small Cell Lung Cancer, read-out: Growth Inhibition (GI50)
From the text: as §2

[29] = test system: LOX IMVI; assay: NCI 60 cell line panel screening; format: cell-based; conditions: Homo sapiens, Melanoma, read-out: Growth Inhibition (GI50)
From the text: as §2

[30] = test system: T-47D; assay: NCI 60 cell line panel screening; format: cell-based; conditions: Homo sapiens, T47D, Breast Cancer, read-out: Growth Inhibition (GI50)
From the text: as §2

[31] = test system: SK-MEL-28; assay: NCI 60 cell line panel screening; format: cell-based; conditions: Homo sapiens, Melanoma, read-out: Growth Inhibition (GI50)
From the text: as §2

[32] = test system: SF-539; assay: NCI 60 cell line panel screening; format: cell-based; conditions: Homo sapiens, CNS Cancer, read-out: Growth Inhibition (GI50)
From the text: as §2

[33] = test system: SK-MEL-2; assay: NCI 60 cell line panel screening; format: cell-based; conditions: Homo sapiens, Melanoma, read-out: Growth Inhibition (GI50)
From the text: as §2

[34] = test system: KM12; assay: NCI 60 cell line panel screening; format: cell-based; conditions: Homo sapiens, Colon Cancer, read-out: Growth Inhibition (GI50)
From the text: as §2

[35] = test system: SK-MEL-5; assay: NCI 60 cell line panel screening; format: cell-based; conditions: Homo sapiens, Melanoma, read-out: Growth Inhibition (GI50)
From the text: as §2

[36] = test system: 786-0; assay: NCI 60 cell line panel screening; format: cell-based; conditions: Homo sapiens, Renal Cancer, read-out: Growth Inhibition (GI50)
From the text: as §2

In the case of `NCCN1C(=O)S/C(=C\CCC2CCCCC2)C1=O` [Example 4, 3-(2-aminoethyl)-5-(3-cyclohexylpropylidene)thiazolidine-2,4-dione], the inhibition at 10 µM [1] is reported as -5%, the inhibition at 10 µM [2] is reported as -2% and the “phosphorylation of Akt (p-Akt, western blot)” value [3] is reported as “dose dependently inhibited the phosphorylation of Akt”. It also gave a GI50 [4] of 2.04 µM, a GI50 [5] of 2.15 µM and a GI50 [6] of 5.41 µM. The GI50 [7] was 3.25 µM, the GI50 [8] was 3.08 µM and the GI50 [9] was 2.2 µM. It also gave a GI50 [10] of 1.67 µM, a GI50 [11] of 2.56 µM and a GI50 [12] of 1.84 µM. For the same compound, the GI50 [13] was 2.47 µM, the GI50 [14] was 1.96 µM and the GI50 [15] was 2.53 µM. It also gave a GI50 [16] of 1.85 µM, a GI50 [17] of 1.57 µM and a GI50 [18] of 2.23 µM. The GI50 [19] was 1.86 µM, the GI50 [20] was 1.64 µM and the GI50 [21] was 1.78 µM. For the same compound, the GI50 [22] was 2.14 µM, the GI50 [23] was 1.85 µM and the GI50 [24] was 1.6 µM. The GI50 [25] was 4.56 µM, the GI50 [26] was 4.04 µM and the GI50 [27] was 2.19 µM. For the same compound, the GI50 [28] was 9.98 µM, the GI50 [29] was 1.4 µM and the GI50 [30] was 2.04 µM. The GI50 [31] was 1.77 µM, the GI50 [32] was 1.83 µM and the GI50 [33] was 1.9 µM. The GI50 [34] was 1.77 µM, the GI50 [35] was 1.7 µM and the GI50 [36] was 1.72 µM.
